Tests used:
MX-1 Mammary Tumor = assay: MX-1 mammary tumor implanted in the mammary fat pad of mice, i.p. treatment
[1] = tested on: U251 human glioblastoma xenograft; assay: Intracranially-implanted U251 human glioblastoma xenograft, survival; format: in vivo; details: for increase in life span (ILS): intracranially-implanted U251, side-by-side experiment
Text: (§1) Treatment of i.c. implants is initiated 1 day after tumor implantation and continued for 5 days. Mice are monitored daily for survival.

[2] = rats; cited from earlier work
[3] = Behavioral test of neurotoxicity (tremors); format: in vivo; details: DM-SMTC-PEN evaluated simultaneously with PEN
Text: A major concern for the penclomedine (PEN) series of derivatives is their possible neurotoxicity. PEN was removed from clinical development as a potential drug for treating breast cancer because of its dose-limiting neurotoxicity.

[4] = after both intravenous and oral administration, related to peak plasma levels; cited from earlier work
[5] = tested on: D54 human glioblastoma multiforme; assay: Intracranially-implanted D54 human glioblastoma multiforme, survival; format: in vivo
Text: as §1

[6] = IP 135 mg/kg/dose, Days 15–19, groups of 5 mice
[7] = IP 135 mg/kg/dose, Days 13-17, groups of 5 mice
[8] = IP 60 mg/kg/dose, Days 15–19, groups of 5 mice

Q: Which “Growth Delay (T-C)” value (MX-1 Mammary Tumor; IP 135 mg/kg/dose, Days 15–19) does the source give for `CCN(CC)C(=S)Oc1c(Cl)c(OC)nc(C(Cl)(Cl)Cl)c1Cl` [DM-DETC-PEN] here?
A: Its value is >35.2.

Q: And the “Tumor-free Survivors” value (MX-1 Mammary Tumor; IP 135 mg/kg/dose, Days 15–19)?
A: The value was 1/5.

Q: What about the “Regressions Complete” value (MX-1 Mammary Tumor; [6]) of the same molecule?
A: Its value is 1.

Q: What about the “Regressions Partial” value (MX-1 Mammary Tumor; [6]) of the same molecule?
A: The value was 1.

Q: For `COc1nc(C(Cl)(Cl)Cl)c(Cl)c(OC(=S)N(C)C)c1Cl` [DM-DMTC-PEN], which “Growth Delay (T-C)” value (MX-1 Mammary Tumor; IP 135 mg/kg/dose, Days 13-17) is on record?
A: Its value is >37.0.

Q: And the “Tumor-free Survivors” value (MX-1 Mammary Tumor; IP 135 mg/kg/dose, Days 13-17)?
A: The value was 3/5.

Q: And the “Regressions Complete” value (MX-1 Mammary Tumor; [7])?
A: The value was 4.

Q: And the “Regressions Partial” value (MX-1 Mammary Tumor; [7])?
A: Its value is 1.

Q: What about the “increase in life span (ILS)” value [1] of the same molecule?
A: Its value is 44%.

Q: With `COc1nc(C(Cl)(Cl)Cl)c(Cl)c(O)c1Cl` [4-DM-PEN, 3,5-Dichloro-2-methoxy-4-hydroxy-6-(trichloromethyl)pyridine, reference compound] as the molecule, how does the “Growth Delay (T-C)” value (MX-1 Mammary Tumor; IP 135 mg/kg/dose, Days 15–19) read?
A: The value was 32.8.

Q: And the “Tumor-free Survivors” value (MX-1 Mammary Tumor; IP 135 mg/kg/dose, Days 15–19)?
A: Its value is 0/5.

Q: What about the “Regressions Complete” value (MX-1 Mammary Tumor; [6]) of the same molecule?
A: Its value is 0.

Q: And the “Regressions Partial” value (MX-1 Mammary Tumor; [6])?
A: The value was 2.

Q: What about the cerebellar damage [2] of the same molecule?
A: The cerebellar damage was “cerebellar damage only in the PEN-treated group”.

Q: With `COc1nc(C(Cl)(Cl)Cl)c(Cl)c(OC)c1Cl` [PEN, 3,5-dichloro-2,4-dimethoxy-6-(trichloromethyl) pyridine] as the molecule, how does the “neurotoxicity (production of tremors)” value [3] read?
A: Its value is “production of tremors”.

Q: What about the “neurotoxicity in clinical trials” value [4] of the same molecule?
A: The value was “dose-limiting neurotoxicity was observed”.

Q: What about the cerebellar damage [2] of the same molecule?
A: Its cerebellar damage is “cerebellar damage only in the PEN-treated group”.

Q: For `COc1nc(C(Cl)(Cl)Cl)c(Cl)c(OC(=O)Sc2ccccc2)c1Cl` [DM-SPTC-PEN], which “Growth Delay (T-C)” value (MX-1 Mammary Tumor; IP 135 mg/kg/dose, Days 15–19) is on record?
A: The value was >35.2.

Q: And the “Tumor-free Survivors” value (MX-1 Mammary Tumor; IP 135 mg/kg/dose, Days 15–19)?
A: The value was 1/5.

Q: What about the “Regressions Complete” value (MX-1 Mammary Tumor; [6]) of the same molecule?
A: Its value is 2.

Q: And the “Regressions Partial” value (MX-1 Mammary Tumor; [6])?
A: The value was 2.

Q: Which “Growth Delay (T-C)” value (MX-1 Mammary Tumor; IP 60 mg/kg/dose, Days 15–19) does the source give for `COc1nc(C(Cl)(Cl)Cl)c(Cl)c(OC(=O)SC)c1Cl` [DM-SMTC-PEN] here?
A: The value was >41.6.

Q: And the “Tumor-free Survivors” value (MX-1 Mammary Tumor; IP 60 mg/kg/dose, Days 15–19)?
A: Its value is 2/5.

Q: What about the “Regressions Complete” value (MX-1 Mammary Tumor; [8]) of the same molecule?
A: Its value is 2.

Q: And the “Regressions Partial” value (MX-1 Mammary Tumor; [8])?
A: The value was 2.

Q: And the “activity against intracranially-implanted U251” value ([1]; compared with the acyl derivatives)?
A: Its value is “comparably active to the acyl derivatives”.

Q: And the “increase in life span (ILS)” value [1]?
A: Its value is 56%.

Q: And the “neurotoxicity (production of tremors)” value [3]?
A: The value was “non-neurotoxic”.

Q: And the “increase in life span” value [5]?
A: Its value is 18%.

Q: With `CCSC(=O)Oc1c(Cl)c(OC)nc(C(Cl)(Cl)Cl)c1Cl` [DM-SETC-PEN] as the molecule, how does the “Growth Delay (T-C)” value (MX-1 Mammary Tumor; IP 60 mg/kg/dose, Days 15–19) read?
A: Its value is >35.2.

Q: And the “Tumor-free Survivors” value (MX-1 Mammary Tumor; IP 60 mg/kg/dose, Days 15–19)?
A: Its value is 1/5.

Q: And the “Regressions Complete” value (MX-1 Mammary Tumor; [8])?
A: The value was 2.

Q: What about the “Regressions Partial” value (MX-1 Mammary Tumor; [8]) of the same molecule?
A: Its value is 3.

— US7122563B2, “Derivatives of 4-demethylpenclomedine, use thereof and preparation thereof” (Southern Research Institute, priority 2005, dated 2006)
